Assay results: PMC9217908, “Screening of commonly prescribed drugs for effects on the CAT1-mediated transport of L-arginine and arginine derivatives” (Amino Acids, 2022)
Like-named read-outs stand apart in the source and are kept apart here. Values belong to the compound of their own block, whether it stands above or below them.

Experiments:
Assay in all cases: cell-based
[1] = molecular target: T1, CAT1 (cationic amino acid transporter 1, CAT1/SLC7A1) (Homo sapiens, UniProt P30825); parameters: species or system HEK-CAT1 (HEK293 stably transfected); Inhibition of net CAT1-mediated [3H]-L-arginine (100 uM) uptake, 5 min, scintillation counting, vector control subtracted; settings: HEK293, L-arginine 100 uM as substrate; for inhibition at 20 µM: read-out: % Inhibition of L-arginine uptake at 20 µM; for inhibition at 200 µM: read-out: % Inhibition of L-arginine uptake at 200 µM
T1 construct: full-length human transporter stably transfected in HEK cells (HEK-CAT1); net uptake against HEK-VC vector control cells
Description: (§1) Uptake and inhibition assays using HEK-CAT1 and HEK-VC cells and L-arginine, L-homoarginine, and ADMA as substrates were performed using the protocol described (Strobel et al. [2012]; Chafai et al. [2017]). Briefly, after incubation, the supernatant was replaced with transport buffer containing [^3H]- L-arginine for 5 min and 2.5 min for medium containing [^3H]-L-homoarginine or [^3H]-ADMA with or without the test compound. The reference drugs were screened at concentrations of 20 µM (Figs. 1A, 2A, and 3A) and 200 µM (Figs. 1B, 2B, and 3B). […] The net uptake was determined by subtracting the total amount taken up by control cells from the amount taken up by CAT1-expressing cells, which was expressed as a percentage of the amount taken up by the control. To determine the inhibitory effects of the drugs on CAT1-mediated transport of L-arginine, L-homoarginine, or ADMA, the control was measured in the absence of the potential inhibitor. The value for the percent inhibition was calculated as: Inhibition (%) = 100 – (V/V0 ^* 100), where V and V0 are the net uptake rates (uptake into HEK-CAT1 cells—uptake into HEK-VC cells) with and without test drugs, respectively. […] Each bar represents the effect of one compound on CAT1-mediated L-arginine (100 μM) uptake as percent inhibition. Data were obtained from at least two independent experiments performed in triplicate (n = 6–9) and each test data from the independent experiment were normalized to the respective control data to get the value of percent inhibition. Negative inhibition values indicate stimulated CAT1-mediated uptake. Data were analyzed using one-way ANOVA and Dunnett’s multiple comparison test with p < 0.05. Bars showing a statistically significant inhibition or transport stimulation are shaded in black

[2] = molecular target: T1, CAT1 (cationic amino acid transporter 1, CAT1/SLC7A1); parameters: species or system HEK-CAT1 (HEK293 stably transfected); Inhibition of net CAT1-mediated [3H]-L-homoarginine (1 uM) uptake, 2.5 min, scintillation counting, vector control subtracted; settings: HEK293, L-homoarginine 1 uM as substrate; for inhibition at 20 µM: read-out: % Inhibition of L-homoarginine uptake at 20 µM; for inhibition at 200 µM: read-out: % Inhibition of L-homoarginine uptake at 200 µM
Description: as §1, with “L-homoarginine (1” for “L-arginine (100”

[3] = molecular target: T1, CAT1 (cationic amino acid transporter 1, CAT1/SLC7A1); parameters: species or system HEK-CAT1 (HEK293 stably transfected); Inhibition of net CAT1-mediated [3H]-ADMA (1 uM) uptake, 2.5 min, scintillation counting, vector control subtracted; settings: HEK293, ADMA 1 uM as substrate; for inhibition at 20 µM: read-out: % Inhibition of ADMA uptake at 20 µM; for inhibition at 200 µM: read-out: % Inhibition of ADMA uptake at 200 µM
Description: as §1, with “ADMA (1” for “L-arginine (100”

T1 sequence (P30825 whole entry): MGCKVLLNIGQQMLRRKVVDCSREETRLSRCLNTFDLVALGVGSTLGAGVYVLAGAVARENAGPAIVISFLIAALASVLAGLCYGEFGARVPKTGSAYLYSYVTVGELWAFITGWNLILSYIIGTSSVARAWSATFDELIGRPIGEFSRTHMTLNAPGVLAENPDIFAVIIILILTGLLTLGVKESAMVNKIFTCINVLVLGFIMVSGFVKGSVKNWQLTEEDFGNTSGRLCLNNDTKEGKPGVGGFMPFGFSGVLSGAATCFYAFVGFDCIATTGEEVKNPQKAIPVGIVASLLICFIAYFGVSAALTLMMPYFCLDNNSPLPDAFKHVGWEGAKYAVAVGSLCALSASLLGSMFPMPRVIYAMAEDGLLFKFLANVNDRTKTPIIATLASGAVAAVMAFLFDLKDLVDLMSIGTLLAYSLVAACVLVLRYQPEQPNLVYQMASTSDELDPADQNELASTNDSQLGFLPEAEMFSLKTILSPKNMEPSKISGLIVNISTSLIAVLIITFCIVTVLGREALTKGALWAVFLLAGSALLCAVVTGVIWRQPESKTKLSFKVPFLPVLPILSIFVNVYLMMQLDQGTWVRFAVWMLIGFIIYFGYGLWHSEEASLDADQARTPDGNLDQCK

Structure (SMILES): CCCC1O[C@@H]2C[C@H]3[C@@H]4CCC5=CC(=O)C=C[C@]5(C)[C@H]4[C@@H](O)C[C@]3(C)[C@]2(C(=O)CO)O1 (stereo partly drawn) [Budesonide]
inhibition at 20 µM [1]: -9.7 ± 7.8%
inhibition at 200 µM [1]: -6.4 ± 3.9%
inhibition at 20 µM [2]: -9.7 ± 5.5%
inhibition at 200 µM [2]: -4.9 ± 6.5%
inhibition at 20 µM [3]: -13.2 ± 3.7%
inhibition at 200 µM [3]: -47.7 ± 6.5%

Structure (SMILES): C[C@H](CS)C(=O)N1CCC[C@H]1C(=O)O [Captopril]
inhibition at 20 µM [1]: 0.6 ± 4.7%
inhibition at 200 µM [1]: -15.1 ± 13.1%
inhibition at 20 µM [2]: 0.1 ± 4.5%
inhibition at 200 µM [2]: -15.9 ± 3%
inhibition at 20 µM [3]: 0.5 ± 2.1%
inhibition at 200 µM [3]: -19.6 ± 2.2%

Structure (SMILES): CO/N=C(\C(=O)N[C@@H]1C(=O)N2C(C(=O)O)=C(COC(N)=O)CS[C@H]12)c1ccco1 [Cefuroxime]
inhibition at 20 µM [1]: 17.3 ± 3.5%
inhibition at 200 µM [1]: -9.8 ± 8.4%
inhibition at 20 µM [2]: 16.8 ± 1.6%
inhibition at 200 µM [2]: -8.5 ± 5.9%
inhibition at 20 µM [3]: -7.1 ± 2.9%
inhibition at 200 µM [3]: -11.5 ± 2.8%

Structure (SMILES): O=C(O)CCCc1ccc(N(CCCl)CCCl)cc1 [Chlorambucil]
inhibition at 20 µM [1]: -23.3 ± 3.8%
inhibition at 200 µM [1]: -43.3 ± 6.5%
inhibition at 20 µM [2]: -18.6 ± 1.4%
inhibition at 200 µM [2]: -41.6 ± 6.4%
inhibition at 20 µM [3]: -5.1 ± 2.8%
inhibition at 200 µM [3]: 13.9 ± 4.4%

Structure (SMILES): CCN(CC)CCCC(C)Nc1ccnc2cc(Cl)ccc12 (stereo not drawn) [Chloroquine]
inhibition at 20 µM [1]: -6.1 ± 1.1%
inhibition at 200 µM [1]: -11.4 ± 2.6%
inhibition at 20 µM [2]: -35.1 ± 5.2%
inhibition at 200 µM [2]: -54.8 ± 6.9%
inhibition at 20 µM [3]: -27 ± 16.2%
inhibition at 200 µM [3]: -23.1 ± 8.2%

Structure (SMILES): CN/C(=N\CCSCc1nc[nH]c1C)NC#N [Cimetidine]
inhibition at 20 µM [1]: 0.2 ± 7.2%
inhibition at 200 µM [1]: -65.4 ± 5.8%
inhibition at 20 µM [2]: 21.9 ± 3%
inhibition at 200 µM [2]: -31.2 ± 1.3%
inhibition at 20 µM [3]: 21.9 ± 3.1%
inhibition at 200 µM [3]: 1.1 ± 2.5%

Structure (SMILES): CN(C)CCCC1(c2ccc(F)cc2)OCc2cc(C#N)ccc21 (stereo not drawn) [Citalopram]
inhibition at 20 µM [1]: -16.7 ± 9.2%
inhibition at 200 µM [1]: 42.8 ± 4.1%
inhibition at 20 µM [2]: 8.8 ± 3.3%
inhibition at 200 µM [2]: 29.6 ± 3.1%
inhibition at 20 µM [3]: 8.8 ± 3.3%
inhibition at 200 µM [3]: -15.6 ± 8.1%

Structure (SMILES): CC[C@H]1OC(=O)[C@H](C)[C@@H](O[C@H]2C[C@@](C)(OC)[C@@H](O)[C@H](C)O2)[C@H](C)[C@@H](O[C@@H]2O[C@H](C)C[C@H](N(C)C)[C@H]2O)[C@](C)(OC)C[C@@H](C)C(=O)[C@H](C)[C@@H](O)[C@]1(C)O [Clarithromycin]
inhibition at 20 µM [1]: -16.8 ± 2.1%
inhibition at 200 µM [1]: -14.3 ± 6.2%
inhibition at 20 µM [2]: -2.4 ± 2.1%
inhibition at 200 µM [2]: -13.6 ± 3.3%
inhibition at 20 µM [3]: -3.9 ± 5.3%
inhibition at 200 µM [3]: -72.9 ± 1.6%

Structure (SMILES): C[C@@H]1CCC[C@H](C)N1NC(=O)c1ccc(Cl)c(S(N)(=O)=O)c1 [Clopamide]
inhibition at 20 µM [1]: 4.5 ± 1.9%
inhibition at 200 µM [1]: 23.4 ± 2.5%
inhibition at 20 µM [2]: -14.3 ± 2.1%
inhibition at 200 µM [2]: 14.3 ± 2.2%
inhibition at 20 µM [3]: -11.1 ± 2.3%
inhibition at 200 µM [3]: 11.6 ± 6.5%

Results, then the compound that gave them:

inhibition at 20 µM [1]: 9 ± 4%
inhibition at 200 µM [1]: -10.1 ± 1.7%
inhibition at 20 µM [2]: 8.9 ± 4.1%
inhibition at 200 µM [2]: -8.6 ± 1.9%
inhibition at 20 µM [3]: -2.8 ± 6.2%
inhibition at 200 µM [3]: -9.7 ± 5.6%
Structure (SMILES): CCCCNc1cc(C(=O)O)cc(S(N)(=O)=O)c1Oc1ccccc1 [Bumetanide]

inhibition at 20 µM [1]: 14.5 ± 2.4%
inhibition at 200 µM [1]: -18.8 ± 2.4%
inhibition at 20 µM [2]: 12.6 ± 2.2%
inhibition at 200 µM [2]: -12.6 ± 3.8%
inhibition at 20 µM [3]: -11.1 ± 0.9%
inhibition at 200 µM [3]: 8.1 ± 3.1%
Structure (SMILES): CCOc1nc2cccc(C(=O)O)c2n1Cc1ccc(-c2ccccc2-c2nnn[nH]2)cc1 [Candesartan]

inhibition at 20 µM [1]: 17.8 ± 4.1%
inhibition at 200 µM [1]: 0.7 ± 4.3%
inhibition at 20 µM [2]: 18.9 ± 3.5%
inhibition at 200 µM [2]: 12.7 ± 3.9%
inhibition at 20 µM [3]: 4.8 ± 2.1%
inhibition at 200 µM [3]: 12.8 ± 4.2%
Structure (SMILES): NC(=O)N1c2ccccc2C=Cc2ccccc21 [Carbamazepine]

inhibition at 20 µM [1]: -14.1 ± 1.5%
inhibition at 200 µM [1]: 0.2 ± 3.5%
inhibition at 20 µM [2]: -11.2 ± 0.9%
inhibition at 200 µM [2]: -1.4 ± 7.7%
inhibition at 20 µM [3]: -1.1 ± 3.1%
inhibition at 200 µM [3]: -7.8 ± 7.1%
Structure (SMILES): COc1ccccc1OCCNCC(O)COc1cccc2[nH]c3ccccc3c12 (stereo not drawn) [Carvedilol]

inhibition at 20 µM [1]: -4.1 ± 0.9%
inhibition at 200 µM [1]: -12.8 ± 4.8%
inhibition at 20 µM [2]: -4.5 ± 0.7%
inhibition at 200 µM [2]: -12.2 ± 3.9%
inhibition at 20 µM [3]: 18 ± 3.1%
inhibition at 200 µM [3]: 14 ± 1.9%
Structure (SMILES): CN(C)CCCN1c2ccccc2CCc2ccc(Cl)cc21 [Clomipramine]
